Data: patent publication US20180282271A1, “ANTIBIOTIC AMINO ACID MIMETICS” (priority 2017, published 2018)
≈ marks a conversion by molar mass, not a printed value.

Experiments:
[1] = test system: Clostridium difficile MMX 4381/ATCC 700057; assay: Broth microdilution MIC, standard CLSI media, ATCC QC organism; format: cell-based; settings: Clostridioides difficile, ATCC700057, 48 hr results
Experimental: (§1) The test organisms were originally received from clinical sources or from the American Type Culture Collection (ATCC, Manassas, Va.). When received, the organisms were subcultured onto an appropriate agar medium. Following incubation, colonies were harvested from the plate and a cell suspension was prepared in broth containing cryoprotectant and frozen at −80° C. Prior to the assay, a frozen vial of the culture was partially thawed and the contents were streaked for isolation onto an appropriate growth medium. The agar plates were incubated overnight at 35° C. Test organisms included staphylococci and enterococci (Table 1), streptococci (Table 2), Enterobacteriaceae (Table 3), lactose non-fermenting Gram-negative bacilli (Table 4), Haemophilus influenzae (Table 5), Neisseria gonorrhoeae (Table 5), and Clostridium difficile (Table 6).
(§2) The standard CLSI broth medium was employed for the purposes of quality control of the comparator drugs for the MIC assay and was only used for testing of relevant ATCC quality control isolates as established by CLSI (1-5).
(§3) MIC values were determined using a broth microdilution method as recommended by CLSI (1-5).
(§4) Column 1 was filled with 300 μL of the investigational and control agents at the appropriate stock concentration (40× of the highest test concentration). The Biomek 2000 was used to make eleven 2-fold serial dilutions to create a “mother plate.” The wells of column 12 contained no drug and served as growth control wells.
(§5) The daughter plates were prepared on the Biomek FX instrument which transferred 5 μL of drug solution from each well of the mother plate to the corresponding well of each daughter plate in a single step.
(§6) Standardized inoculum of each organism was prepared per CLSI methods (1-5). The inoculum for each organism was dispensed into sterile reservoirs divided by length (Beckman Coulter), and the Biomek 2000 was used to inoculate the plates. Daughter plates were placed on the Biomek 2000 work surface reversed so that inoculation took place from low to high drug concentration. The Biomek 2000 delivered 10 PL of standardized inoculum into each well resulting in a target inoculum size of approximately 5×10^5 CFU/mL. The wells of the daughter plates ultimately contained 185 μL of media, 5 μL of drug solution at 40× the test concentration, and 10 μL of bacterial inoculum prepared in media.
(§7) Plates were stacked 3-4 high, covered with a lid on the top plate, placed into plastic bags, and incubated at 35° C. under the appropriate conditions, with C. difficile incubated anaerobically. Plates were viewed post-incubation at 18-24 hr and again at 48 hr from the bottom using a plate viewer. […] MICs were read where visible growth of the organism was inhibited.

[2] = test system: Enterococcus faecalis MMX 101/ATCC 29212; assay: as above; format: cell-based
Experimental: as §1, §2, §3, §4, §5, §6, §7

[3] = test system: Escherichia coli MMX 102/ATCC 25922; assay: as above; format: cell-based
Experimental: as §1, §2, §3, §4, §5, §6, §7

[4] = test system: Haemophilus influenzae MMX 1224/ATCC 49247; assay: as above; format: cell-based
Experimental: as §1, §2, §3, §4, §5, §6, §7

[5] = test system: Neisseria gonorrhoeae MMX 683/ATCC 49226; assay: as above; format: cell-based
Experimental: as §1, §2, §3, §4, §5, §6, §7

[6] = test system: Pseudomonas aeruginosa MMX 103/ATCC 27853; assay: as above; format: cell-based
Experimental: as §1, §2, §3, §4, §5, §6, §7

[7] = test system: Staphylococcus aureus MMX 100/ATCC 29213; assay: as above; format: cell-based
Experimental: as §1, §2, §3, §4, §5, §6, §7

[8] = test system: Streptococcus pneumoniae MMX 1195/ATCC 49619; assay: as above; format: cell-based
Experimental: as §1, §2, §3, §4, §5, §6, §7

[9] = test system: Staphylococcus aureus MMX 100/ATCC 29213; settings: CLSI QC ranges shown in parenthesis; cited from earlier work
[10] = test system: Enterococcus faecalis MMX 101/ATCC 29212; settings: CLSI QC ranges shown in parenthesis; cited from earlier work
[11] = test system: Streptococcus pneumoniae MMX 1195/ATCC 49619; settings: CLSI QC ranges shown in parenthesis; cited from earlier work
[12] = test system: Escherichia coli MMX 102/ATCC 25922; settings: CLSI QC ranges shown in parenthesis; cited from earlier work
[13] = test system: Pseudomonas aeruginosa MMX 103/ATCC 27853; settings: CLSI QC ranges shown in parenthesis; cited from earlier work
[14] = test system: Haemophilus influenzae MMX 1224/ATCC 49247; settings: CLSI QC ranges shown in parenthesis; cited from earlier work

C[C@@H](O)[C@H]1C(=O)N2C(C(=O)O)=C(S[C@@H]3CN[C@H](C(=O)N(C)C)C3)[C@H](C)[C@H]12 [MEM, meropenem]
MIC [1]: 1 µg/mL (≈ 2.61 µM)
MIC ([2]; ATCC29212, 24 hr results): 4 µg/mL (≈ 10.4 µM)
MIC ([2]; ATCC29212, 48 hr results): > 4 µg/mL
MIC ([3]; ATCC25922, 24 hr results): 0.03 µg/mL (≈ 0.0782 µM)
MIC ([3]; ATCC25922, 48 hr results): 0.03 µg/mL (≈ 0.0782 µM)
MIC ([4]; ATCC49247, 24 hr results): 0.06 µg/mL (≈ 0.156 µM)
MIC ([4]; ATCC49247, 48 hr results): 0.06 µg/mL (≈ 0.156 µM)
MIC ([5]; ATCC49226, 24 hr results): > 4 µg/mL
MIC ([5]; ATCC49226, 48 hr results): > 4 µg/mL
MIC ([6]; ATCC27853, 24 hr results): 0.5 µg/mL (≈ 1.3 µM)
MIC ([6]; ATCC27853, 48 hr results): 1 µg/mL (≈ 2.61 µM)
MIC ([7]; ATCC29213, 24 hr results): 0.06 µg/mL (≈ 0.156 µM)
MIC ([7]; ATCC29213, 48 hr results): 0.12 µg/mL (≈ 0.313 µM)
MIC ([8]; ATCC49619, 24 hr results): 0.06 µg/mL (≈ 0.156 µM)
MIC ([8]; ATCC49619, 48 hr results): 0.06 µg/mL (≈ 0.156 µM)
CLSI QC range of MIC [9]: (0.03-0.12) μg/mL
CLSI QC range of MIC [10]: (2-8) μg/mL
CLSI QC range of MIC [11]: (0.03-0.25) μg/mL
CLSI QC range of MIC [12]: (0.008-0.06) μg/mL
CLSI QC range of MIC [13]: (0.25-1) μg/mL

CO/N=C(\C(=O)N[C@@H]1C(=O)N2C(C(=O)[O-])=C(C[N+]3(C)CCCC3)CS[C@H]12)c1csc(N)n1 [FEP, cefepime]
MIC ([2]; ATCC29212, 24 hr results): > 64 µg/mL
MIC ([2]; ATCC29212, 48 hr results): > 64 µg/mL
MIC ([3]; ATCC25922, 24 hr results): 0.25 µg/mL (≈ 0.52 µM)
MIC ([3]; ATCC25922, 48 hr results): 0.25 µg/mL (≈ 0.52 µM)
MIC ([4]; ATCC49247, 24 hr results): 0.25 µg/mL (≈ 0.52 µM)
MIC ([4]; ATCC49247, 48 hr results): 0.25 µg/mL (≈ 0.52 µM)
MIC ([5]; ATCC49226, 24 hr results): 16 µg/mL (≈ 33.3 µM)
MIC ([5]; ATCC49226, 48 hr results): 32 µg/mL (≈ 66.6 µM)
MIC ([6]; ATCC27853, 24 hr results): 1 µg/mL (≈ 2.08 µM)
MIC ([6]; ATCC27853, 48 hr results): 2 µg/mL (≈ 4.16 µM)
MIC ([7]; ATCC29213, 24 hr results): 16 µg/mL (≈ 33.3 µM)
MIC ([7]; ATCC29213, 48 hr results): 16 µg/mL (≈ 33.3 µM)
MIC ([8]; ATCC49619, 24 hr results): 0.5 µg/mL (≈ 1.04 µM)
MIC ([8]; ATCC49619, 48 hr results): 0.5 µg/mL (≈ 1.04 µM)
CLSI QC range of MIC [9]: (4-16) μg/mL
CLSI QC range of MIC [12]: (0.06-0.5) μg/mL
CLSI QC range of MIC [13]: (1-4) μg/mL
CLSI QC range of MIC [14]: (0.12-1) μg/mL
